Tests used:
healthy women = assay: Statistical (quadratic regression) analysis of LNG required dose with confidence limits; format: in vivo; parameters: dose required: unit: μg; conditions: for Daily LNG Required Dose, 1.5% Pregnancy Rate Dose / Daily LNG Required Dose, 3% Pregnancy Rate Dose: EE 30 μg; for level of LNG equivalent: women with body weight of over 200 pounds, 30 μg EE per day
From the text: Z represents the applicable coefficient to obtain a desired level of confidence (e.g. a coefficient of two would imply a 95.5% confidence level and a coefficient of three would imply a 99.7% confidence level). The other variables are the same as indicated above. For example, the dose required for a 150 pound person assuming a 95% confidence level would be determined as follows: […]
Table 7 and FIG. 6 summarize the maximum and the minimum dose of levonorgestrel levels required at the 95.5% level of confidence (two standard deviation units, i.e., two σ) for varying woman BMI categories.
Table 7a and FIG. 6a summarize the maximum and the minimum dose of levonorgestrel levels required at the 68% level of confidence (one standard deviation unit, i.e., one σ) for varying woman BMI categories.
A review of the data points associated with Tables 4 and 5 reveal again a relationship which could be linear or quadratic. Again, since the data has substantial variability in the individual points a statistical analysis of the data was performed. The applicable linear and quadratic equations had correlation coefficients R2 of 0.73 for both 1.5 and 3% pregnancy rates. The standard error for the 1.5% pregnancy rate (linear VS quadratic) as well as the 3% pregnancy rate (linear versus quadratic) was within 10 micrograms of each other. […] We chose to draw FIGS. 4a and 4b based on the quadratic equations, so as to have an easier comparison to the corresponding body weight lines in FIGS. 3a and 3b.
As indicated above the implied equation is shown below, where the symbols Y and X are the same as presented above. The correlation coefficient R2 is 0.73 and the standard error 94.3 micrograms.
The correlation coefficient, R2 is 0.73 and the standard error 46.8. The above equation can be modified to provide a 95.5% confidence level as follows
Table 7 and FIG. 6 summarize the maximum and minimum dose of levonorgestrel levels required at the 95% confidence for varying woman BMI categories as determined from the modified equations described above.
Therefore another practical approach is to treat all women with body weight of over 200 pounds with the same formulations. For example for women co-administered 30 μg EE per day, the level of LNG equivalent would be 350 μg per day (for the 1.5% pregnancy level), and 200 μg per day (for the 3% pregnancy level). An intermediate level of 260 μg per day can also be prepared.

[1] = Free LNG circulating in plasma versus EE delivered (WO2016187269)
Method: However, ethinyl estradiol binds to SHBG and in the process it releases some of the bound LNG. Therefore if more or less than about 30 μg of EE are delivered from the contraceptive formulation, the required levels shown in FIGS. 3, 3a and 3b will have to be modified accordingly. […] Therefore the levels of required LNG can be calculated for any level of accompanied EE.

[2] = BMI >17.5 < 22.5, 68% confidence level, 30 μg EE
[3] = BMI >17.5 < 22.5, 95.5% confidence level, 30 μg EE
[4] = BMI >22.5 < 27.5, 68% confidence level, 30 μg EE
[5] = BMI >22.5 < 27.5, 95.5% confidence level, 30 μg EE
[6] = BMI >27.5 < 32.5, 68% confidence level, 30 μg EE
[7] = BMI >27.5 < 32.5, 95.5% confidence level, 30 μg EE
[8] = BMI >32.5 < 37.5, 68% confidence level, 30 μg EE
[9] = BMI >32.5 < 37.5, 95.5% confidence level, 30 μg EE
[10] = BMI >37.5 < 42.5, 68% confidence level, 30 μg EE
[11] = BMI >37.5 < 42.5, 95.5% confidence level, 30 μg EE
[12] = BMI >42.5 < 47.5, 68% confidence level, 30 μg EE
[13] = BMI >42.5 < 47.5, 95.5% confidence level, 30 μg EE
[14] = BMI >47.5 < 52.5, 68% confidence level, 30 μg EE
[15] = BMI >47.5 < 52.5, 95.5% confidence level, 30 μg EE
[16] = weight 90 to ≤120, 68% confidence level
[17] = weight 90 to ≤120, 95.5% confidence level
[18] = weight 120 to ≤150, 68% confidence level
[19] = weight 120 to ≤150, 95.5% confidence level
[20] = weight 150 to ≤180, 68% confidence level
[21] = weight 150 to ≤180, 95.5% confidence level
[22] = weight 180 to ≤210, 68% confidence level
[23] = weight 180 to ≤210, 95.5% confidence level
[24] = weight 210 to ≤240, 68% confidence level
[25] = weight 210 to ≤240, 95.5% confidence level
[26] = weight 240 to ≤270, 68% confidence level
[27] = weight 240 to ≤270, 95.5% confidence level
[28] = weight 270+, 68% confidence level
[29] = weight 270+, 95.5% confidence level

C#C[C@]1(O)CC[C@H]2[C@@H]3CCC4=CC(=O)CC[C@@H]4[C@H]3CC[C@@]21CC [LNG, levonorgestrel]
dose required (healthy women; 25 BMI woman, 95% confidence level, 3% pregnancy rate): 26
LNG daily dosage, high boundary value (healthy women; 27.5 BMI woman, 95.5% confidence, pregnancy rate of 1.5%): 430 microgram
daily dose, low boundary value (healthy women; 150 pound person, 95.5% confidence, 3 pregnancies per 100 woman years, 30 μg EE): 62.4 µg
daily dose, high boundary value (healthy women; 150 pound person, 95.5% confidence, pregnancy rate of 1.5%, 30 μg EE): 302 µg
LNG Daily Required Dose, 1.5% Pregnancy Rate (healthy women; [2]): 283 µg
LNG Daily Required Dose, 3% Pregnancy Rate (healthy women; [2]): 47 µg
LNG Daily Required Dose, 1.5% Pregnancy Rate (healthy women; [3]): 378 µg
LNG Daily Required Dose, 3% Pregnancy Rate (healthy women; [3]): 0.1 µg
LNG Daily Required Dose, 1.5% Pregnancy Rate (healthy women; [4]): 335 µg
LNG Daily Required Dose, 3% Pregnancy Rate (healthy women; [4]): 72 µg
LNG Daily Required Dose, 1.5% Pregnancy Rate (healthy women; [5]): 430 µg
LNG Daily Required Dose, 3% Pregnancy Rate (healthy women; [5]): 26 µg
LNG Daily Required Dose, 1.5% Pregnancy Rate (healthy women; [6]): 390 µg
LNG Daily Required Dose, 3% Pregnancy Rate (healthy women; [6]): 99 µg
LNG Daily Required Dose, 1.5% Pregnancy Rate (healthy women; [7]): 484 µg
LNG Daily Required Dose, 3% Pregnancy Rate (healthy women; [7]): 52 µg
LNG Daily Required Dose, 1.5% Pregnancy Rate (healthy women; [8]): 447 µg
LNG Daily Required Dose, 3% Pregnancy Rate (healthy women; [8]): 127 µg
LNG Daily Required Dose, 1.5% Pregnancy Rate (healthy women; [9]): 541 µg
LNG Daily Required Dose, 3% Pregnancy Rate (healthy women; [9]): 80 µg
LNG Daily Required Dose, 1.5% Pregnancy Rate (healthy women; [10]): 507 µg
LNG Daily Required Dose, 3% Pregnancy Rate (healthy women; [10]): 157 µg
LNG Daily Required Dose, 1.5% Pregnancy Rate (healthy women; [11]): 601 µg
LNG Daily Required Dose, 3% Pregnancy Rate (healthy women; [11]): 110 µg
LNG Daily Required Dose, 1.5% Pregnancy Rate (healthy women; [12]): 569 µg
LNG Daily Required Dose, 3% Pregnancy Rate (healthy women; [12]): 187 µg
LNG Daily Required Dose, 1.5% Pregnancy Rate (healthy women; [13]): 663 µg
LNG Daily Required Dose, 3% Pregnancy Rate (healthy women; [13]): 140 µg
LNG Daily Required Dose, 1.5% Pregnancy Rate (healthy women; [14]): 633 µg
LNG Daily Required Dose, 3% Pregnancy Rate (healthy women; [14]): 219 µg
LNG Daily Required Dose, 1.5% Pregnancy Rate (healthy women; [15]): 728 µg
LNG Daily Required Dose, 3% Pregnancy Rate (healthy women; [15]): 172 µg
Daily LNG Required Dose, 1.5% Pregnancy Rate Dose (healthy women; [16]): 171 µg/day
Daily LNG Required Dose, 3% Pregnancy Rate Dose (healthy women; [16]): 41 µg/day
Daily LNG Required Dose, 1.5% Pregnancy Rate Dose (healthy women; [17]): 215 µg/day
Daily LNG Required Dose, 3% Pregnancy Rate Dose (healthy women; [17]): 19 µg/day
Daily LNG Required Dose, 1.5% Pregnancy Rate Dose (healthy women; [18]): 258 µg/day
Daily LNG Required Dose, 3% Pregnancy Rate Dose (healthy women; [18]): 84 µg/day
Daily LNG Required Dose, 1.5% Pregnancy Rate Dose (healthy women; [19]): 302 µg/day
Daily LNG Required Dose, 3% Pregnancy Rate Dose (healthy women; [19]): 62 µg/day
Daily LNG Required Dose, 1.5% Pregnancy Rate Dose (healthy women; [20]): 331 µg/day
Daily LNG Required Dose, 3% Pregnancy Rate Dose (healthy women; [20]): 120 µg/day
Daily LNG Required Dose, 1.5% Pregnancy Rate Dose (healthy women; [21]): 375 µg/day
Daily LNG Required Dose, 3% Pregnancy Rate Dose (healthy women; [21]): 98 µg/day
Daily LNG Required Dose, 1.5% Pregnancy Rate Dose (healthy women; [22]): 389 µg/day
Daily LNG Required Dose, 3% Pregnancy Rate Dose (healthy women; [22]): 148 µg/day
Daily LNG Required Dose, 1.5% Pregnancy Rate Dose (healthy women; [23]): 433 µg/day
Daily LNG Required Dose, 3% Pregnancy Rate Dose (healthy women; [23]): 126 µg/day
Daily LNG Required Dose, 1.5% Pregnancy Rate Dose (healthy women; [24]): 432 µg/day
Daily LNG Required Dose, 3% Pregnancy Rate Dose (healthy women; [24]): 169 µg/day
Daily LNG Required Dose, 1.5% Pregnancy Rate Dose (healthy women; [25]): 476 µg/day
Daily LNG Required Dose, 3% Pregnancy Rate Dose (healthy women; [25]): 147 µg/day
Daily LNG Required Dose, 1.5% Pregnancy Rate Dose (healthy women; [26]): 459 µg/day
Daily LNG Required Dose, 3% Pregnancy Rate Dose (healthy women; [26]): 183 µg/day
Daily LNG Required Dose, 1.5% Pregnancy Rate Dose (healthy women; [27]): 503 µg/day
Daily LNG Required Dose, 3% Pregnancy Rate Dose (healthy women; [27]): 161 µg/day
Daily LNG Required Dose, 1.5% Pregnancy Rate Dose (healthy women; [28]): 472 µg/day
Daily LNG Required Dose, 3% Pregnancy Rate Dose (healthy women; [28]): 189 µg/day
Daily LNG Required Dose, 1.5% Pregnancy Rate Dose (healthy women; [29]): 516 µg/day
Daily LNG Required Dose, 3% Pregnancy Rate Dose (healthy women; [29]): 167 µg/day
level of LNG equivalent (healthy women; 1.5% pregnancy level): 350 μg per day
level of LNG equivalent (healthy women; 3% pregnancy level): 200 μg per day
increase of free LNG as share of the approximate steady state level ([1]; for every 10 μg per day of EE delivered): 20%
change of free LNG in the plasma ([1]; for every one μg per day reduction or increase of EE below or above 30 μg per day): 30 picograms per ml

Reference: patent publication US20200129524A1, “PERSONALIZED CONTRACEPTIVE FORMULATIONS” (Agile Therapeutics, Inc., priority 2017, published 2020)
